# Test results taken from patent US4605744A, “Imidazole derivatives” (Hoffmann-La Roche Inc., priority 1985, dated 1986).
# Several values for one entry are separate records, joined by “and”; a condition that tells them apart may be missing. Equal values may be shown once. Read-outs that look alike come from different tables or passages of the source.
# How the values were obtained:
# E. coli 257 = assay: In vitro antibacterial activity (MIC, Mueller-Hinton broth); assay type: cell-based; conditions: Escherichia coli, 257
# Protocol: Drug dilutions are prepared in Mueller-Hinton broth ranging from 128 to 0.008 μg/ml. The diluted agents are dispensed in 100 μl amounts into the wells of a 96-well tray and used immediately or frozen at -10° to -70° C. until needed. Using an automated inoculator, 1.5 μl of a 10^-2 dilution of an overnight culture is added to each well of the tray. The tops of the trays are then sealed using transparent tape and incubated overnight at 37° C. The trays are examined with the aid of a viewer. The lowest concentration at which no growth is observed is considered to be the minimum inhibitory concentration (MIC).
# C. freundii CDC6 = assay: In vitro antibacterial activity (MIC); assay type: cell-based; conditions: Citrobacter freundii, CDC6
# Summary of the method: (§1)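 Broth microdilution in Mueller-Hinton broth, drug range 128 to 0.008 μg/ml; each well inoculated with 1.5 μl of a 10^-2 dilution of overnight culture. Sealed trays incubated overnight at 37° C. MIC is the lowest concentration showing no visible growth.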
# E. cloacae 24 = assay: In vitro antibacterial activity (MIC); assay type: cell-based; conditions: Enterobacter cloacae, 24
# Summary of the method: as §1
# P. aeruginosa 5700 = assay: In vitro antibacterial activity (MIC); assay type: cell-based
# Summary of the method: as §1
# P. aeruginosa 5712 = assay: In vitro antibacterial activity (MIC); assay type: cell-based; conditions: Pseudomonas aeruginosa, 5712
# Summary of the method: as §1
# P. aeruginosa B = assay: In vitro antibacterial activity (MIC); assay type: cell-based; conditions: Pseudomonas aeruginosa, read-out: MIC
# Summary of the method: as §1
# P. aeruginosa POW 151 = assay: In vitro antibacterial activity (MIC); assay type: cell-based; conditions: Pseudomonas aeruginosa, POW151
# Summary of the method: as §1
# P. aeruginosa Stone 130 = assay: In vitro antibacterial activity (MIC); assay type: cell-based
# Summary of the method: as §1
# P. mirabilis 90 = assay: In vitro antibacterial activity (MIC); assay type: cell-based
# Summary of the method: as §1
# S. aureus 1059B = assay: In vitro antibacterial activity (MIC); assay type: cell-based; conditions: Staphylococcus aureus
# Summary of the method: as §1
# S. aureus Smith = assay: In vitro antibacterial activity (MIC); assay type: cell-based
# Summary of the method: as §1
# S. faecalis C1 = assay: In vitro antibacterial activity (MIC); assay type: cell-based
# Summary of the method: as §1
# S. marcescens S147 = assay: In vitro antibacterial activity (MIC); assay type: cell-based; conditions: Serratia marcescens
# Summary of the method: as §1
# S. marcescens S1 = assay: In vitro antibacterial activity (MIC); assay type: cell-based; conditions: Serratia marcescens, S1
# Summary of the method: as §1
# S. marcescens S5 = assay: In vitro antibacterial activity (MIC); assay type: cell-based
# Summary of the method: as §1
# S. pyogenes 503-782 = assay: In vitro antibacterial activity (MIC); assay type: cell-based
# Summary of the method: as §1
# E. aerogenes 8 = assay: In vivo antibacterial activity (PD50)
# Protocol: (§2) The results in these Tables and the PD50 's were determined by the procedure set forth on page 160 in Beskid et al., Antimicrobial Agents and Chemotherapy, Vol. 20, No. 2 pp. 159-167 (Aug. 1981) for "in vivo studies".
# P. aeruginosa 503-56 = assay: In vivo antibacterial activity (PD50); conditions: Pseudomonas aeruginosa, 50356, sc
# S. pyogenes 4 = assay: In vivo antibacterial activity (PD50); conditions: Streptococcus pyogenes, 4, sc, sc, read-out: PD50
# P. aeruginosa 6148B = assay: In vivo antibacterial activity (PD50); conditions: Pseudomonas aeruginosa, sc, challenge 32 LD50s, 2 treatments, Table 11
# Protocol: as §2
# P. aeruginosa 6719 = assay: In vivo antibacterial activity (PD50); conditions: Pseudomonas aeruginosa, 6719, sc, challenge 2290 LD50s, 2 treatments, Table 11
# Protocol: as §2
# P. aeruginosa 8710 = assay: In vivo antibacterial activity (PD50); conditions: Pseudomonas aeruginosa, 8710, sc, 2 treatments
# Protocol: as §2
# E. cloacae 6951 = assay: In vivo antibacterial activity (PD50); conditions: Enterobacter cloacae, 6951, sc, 2 treatments
# Protocol: as §2
# [1] = challenge 100 LD50s, 2 treatments, Table 10
structure (smiles),measurement,setting,value
"CC1(C)S[C@@H]2[C@H](/N=C/N3CCCCCC3)C(=O)N2[C@H]1C(=O)O [Amdinocillin, amdinocillin, reference compound]",MIC,E. coli 257,0.125 µg/mL
same,MIC,C. freundii CDC6,0.125 µg/mL
same,MIC,E. cloacae 24,0.125 µg/mL
same,MIC,P. aeruginosa 5700; P. aeruginosa 5700,> 128 µg/mL
same,MIC,"P. aeruginosa 5700; Pseudomonas aeruginosa, 5700, P. aeruginosa 5700",128 µg/mL
same,MIC,P. aeruginosa 5712,> 128 µg/mL
same,MIC,P. aeruginosa B,0.062 µg/mL
same,MIC,P. aeruginosa POW 151,> 128 µg/mL
same,MIC,P. aeruginosa Stone 130,128 µg/mL
same,MIC,"P. aeruginosa Stone 130; Pseudomonas aeruginosa, STONE130",> 128 µg/mL
same,MIC,P. mirabilis 90; P. mirabilis 90,0.5 µg/mL
same,MIC,"P. mirabilis 90; Proteus mirabilis, 90, P. mirabilis 90, read-out: MIC",0.25 µg/mL
same,MIC,S. aureus 1059B; 1059B,128 µg/mL
same,MIC,S. aureus 1059B; read-out: MIC,64 µg/mL
same,MIC,S. aureus Smith; S. aureus Smith,8 µg/mL and 16 µg/mL
same,MIC,S. aureus Smith; Staphylococcus aureus,16 µg/mL
same,MIC,"S. faecalis C1; Enterococcus faecalis, C1, S. faecalis C1",> 128 µg/mL
same,MIC,S. faecalis C1; S. faecalis C1,128 µg/mL
same,MIC,"S. marcescens S147; S147, S. marcescens S147",0.125 µg/mL
same,MIC,"S. marcescens S147; S. marcescens S147, read-out: MIC",0.062 µg/mL
same,MIC,S. marcescens S1,0.125 µg/mL
same,MIC,S. marcescens S5; S. marcescens S5,0.5 µg/mL
same,MIC,"S. marcescens S5; Serratia marcescens, S5, S. marcescens S5, read-out: MIC",1 µg/mL
same,MIC,"S. pyogenes 503-782; Streptococcus pyogenes, 503782, S. pyogenes 503-782",> 128 µg/mL
same,MIC,"S. pyogenes 503-782; Streptococcus pyogenes, 503782, S. pyogenes 503-782, read-out: MIC",1 µg/mL
same,ED50,"E. aerogenes 8; Klebsiella aerogenes, 8, sc, read-out: PD50, sc, challenge 10 LD50s, 2 treatments, Table 11",167 mg/kg
same,ED50,"E. aerogenes 8; Klebsiella aerogenes, 8, sc, Table 9, read-out: PD50",> 250 mg/kg
same,ED50,P. aeruginosa 503-56; Table 9,> 250 mg/kg
same,ED50,"P. aeruginosa 503-56; challenge 4.7 LD50s, 2 treatments, Table 10",> 250 mg/kg
same,ED50,"P. aeruginosa 503-56; challenge 50 LD50s, 2 treatments, Table 11",> 250 mg/kg
same,ED50,P. aeruginosa 503-56; [1],> 250 mg/kg
same,ED50,S. pyogenes 4; Table 9,60 mg/kg
same,ED50,"S. pyogenes 4; challenge 3.3 LD50s, 2 treatments, Table 11",11 mg/kg
same,ED50,S. pyogenes 4; [1],8.1 mg/kg
same,ED50,P. aeruginosa 6148B,> 250 mg/kg
same,ED50,P. aeruginosa 6719,< 20 mg/kg
same,ED50,"P. aeruginosa 8710; challenge 10 LD50s, Table 10, read-out: PD50",> 250 mg/kg
same,ED50,"P. aeruginosa 8710; challenge 562 LD50s, Table 10, read-out: PD50",> 250 mg/kg
same,ED50,"P. aeruginosa 8710; challenge >10^4 LD50s, Table 11, read-out: PD50",> 250 mg/kg
same,ED50,"E. cloacae 6951; challenge 562 LD50s, Table 10",18 mg/kg
same,ED50,"E. cloacae 6951; challenge 3162 LD50s, Table 11",2.5 mg/kg
